Consider six substances from US9632092B2, “Reagent for diagnosing tumor, pharmaceutical composition, and screening method” (Tokyo Metropolitan Institute of Medical Science, priority 2012, dated 2017).

Where no end group is shown, it is not given here. [ ]: non-standard residue; d: D form. pS = N[C@@H](COP(=O)(O)O)C(=O)O

The subject of one assay is Huh-1_p62^−/− cells. The assay can be described thus: subdermal transplantation of Huh-1_p62−/− cells with introduced p62 mutants into nude mice. It counts as in vivo. The note with it: 50 days after transplantation, introduced into Huh-1_p62−/−. As to the method:
First, p62 cDNAs which encode S349E (SEQ ID No. 8) (pseudo-phosphorylated p62) with the substitution of glutamic acid for serine 349 of human p62 (SEQ ID No. 7), S349A (SEQ ID No. 9) (non-phosphorylated p62) with the substitution of alanine for serine 349 of human p62, or T350A (SEQ ID No. 10) (p62 mutant defective in interacting with Keap1) with the substitution of alanine for threonine 350 of human p62 was prepared.
Next, a [Huh-1_p62^−/−] cell line was generated by knocking out the p62 gene in Huh-1 cells, using Zinc Finger Nuclease system (Sigma-Aldrich, CompoZr (registered trademark) Zinc Finger Nuclease). Then, adenoviruses having p62 w.t. or p62 mutant were produced, using Adenovirus expression kit (Takara Bio). The [Huh-1_p62^−/−] cells were cultured in 2 ml of a growth medium (Williams E medium containing 10% fetal bovine serum, 5 U/ml penicillin, and 50 μg/ml streptomycin) for 24 hours. The medium was replaced with a fresh medium containing adenovirus at MOI of 50 and the cells were continuously cultured. Wild-type human p62 (SEQ ID No. 7), S349E (SEQ ID No. 8), S349A (SEQ ID No. 9), and T350A (SEQ ID No. 10) were introduced into the [Huh-1_p62^−/−] cell line and thus a [Huh-1_p62^−/−_p62 w.t.] cell line with p62 w.t., a [Huh-1_p62^−/−_p62S349E] cell line with p62S349E, a [Huh-1_p62^−/−_p62S349A] cell line with p62S349A, and a [Huh-1_p62^−/−_p62T350A] cell line with p62T350A, respectively, in [Huh-1_p62^−/−] cell line was obtained.
Each of the cells was transplanted subdermally into […] nude mice. […] Each cell line was transplanted into five mice and the volume (left) and the weight (right) of the tumors were measured 50 days after the transplantation. Mean±standard error for each cell line was calculated and shown in the graphs in FIG. 7(b).

In the next assay the test system is Nrf2. The assay can be described thus: immunoblotting of nuclear and whole cell extracts of hepatocytes expressing p62 mutants. It counts as cell-based, mouse. The note with it: normal hepatocytes. As to the method: Adenoviruses capable of expressing FLAG-tagged p62 w.t. […] Next, normal hepatocytes were cultured in 2 ml of growth medium (Williams E medium containing 10% fetal bovine serum, 5 U/mL penicillin, and 50 μg/mL streptomycin) for 24 hours. The medium was replaced with fresh medium containing the adenovirus at MOI of 50 and the culture was continued. Twenty-four hours after the replacement of the medium, whole cell extract (Total) and nuclear extract (Nucleus) were prepared. Next, immunoprecipitates were prepared from the whole cell extract with anti-FLAG antibody (Sigma Chemical). Then, the samples were separated by NuPAGE electrophoresis system (Invitrogen) on 12% bis-tris gel and MOPS-SDS buffer, and transferred to PVDF membranes. The signals were detected using anti-p62 antibody (GP62C: Progen Biotechnik), anti-Keap1 antibody (Proteintech Group), anti-phosphorylated p62 antibody, anti-Nqo1 antibody (Abcam), anti-Actin antibody (MAB1501R: Millipore), anti-Nrf2 antibody (H-300: Santa Cruz Biotechnology), and anti-LaminB antibody (M-20: Santa Cruz Biotechnology).

For assay [1], the target named is mouse Keap1-DC (aa321-609, SEQ ID No. 24) (Mus musculus, UniProt Q9Z2X8). The assay can be described thus: isothermal titration calorimetry, binding to Keap1-DC. The following applies: for Binding constant (Ka) to Keap1-DC: isothermal titration calorimetry, 25° C.; for binding affinity for Keap1-DC relative to KIR of the non-phosphorylated p62: fold higher binding constant.
mouse Keap1-DC (aa321-609, SEQ ID No. 24), sequence (Q9Z2X8 321-609): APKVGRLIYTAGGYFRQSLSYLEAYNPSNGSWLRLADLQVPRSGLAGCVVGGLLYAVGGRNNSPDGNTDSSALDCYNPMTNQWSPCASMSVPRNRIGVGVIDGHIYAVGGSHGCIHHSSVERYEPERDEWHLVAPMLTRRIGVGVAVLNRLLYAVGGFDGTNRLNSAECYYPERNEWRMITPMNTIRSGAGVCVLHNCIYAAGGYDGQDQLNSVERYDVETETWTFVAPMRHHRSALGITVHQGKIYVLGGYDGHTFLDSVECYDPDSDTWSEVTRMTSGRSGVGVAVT
Protocol: Binding isotherms were obtained using isothermal titration calorimetry, for the interaction of mouse Keap1-DC (aa321-609, SEQ ID No. 24) with KIR in mouse non-phosphorylated p62 (SEQ ID No. 21), KIR in mouse phosphorylated p62 (SEQ ID No. 21), or an ETGE motif of mouse Nrf2 (SEQ ID No. 26) (FIG. 2).
First, isothermal titration calorimetry was performed using MicroCal iTC200 System (GE Healthcare) at 25° C. 2.5 μl of 0.1 mM solution of non-phosphorylated KIR (^348[sequence]^356, SEQ ID No. 21) was injected from a rotating syringe (1000 rpm) into 200 μl of 0.1 mM solution of Keap1-DC sixteen times at an interval of 3 minutes. 1.3 μl of 0.6 mM phosphorylated KIR (^348VDP(pS)TGELQ^356) solution was injected from a rotating syringe (1000 rpm) into 200 μl of 0.06 mM Keap1-DC solution thirty times at an interval of 2 minutes. […] The binding data were analyzed using Origin 7 software (GE healthcare).

Regarding “S349A: non-phosphorylated human p62 mutant, alanine for serine 349, SEQ ID No. 9”, in the assay with Huh-1_p62^−/− cells, the “in vivo proliferation of the tumor cells (tumor volume and weight)” value (“in vivo proliferation of the tumor cells” below) is on record as “not recovered”.
“S351E: pseudo-phosphorylated mouse p62 mutant, glutamic acid for serine 351, SEQ ID No. 2”: the “Nrf2 accumulation in nuclei” value in the assay on Nrf2 (nuclear extract) was “significantly accumulated”. For the same substance, the “expression of Nqo1 (Nrf2 target)” value in the assay on Nrf2 (whole cell extract) is on record as “induced”.
With “T350A: human p62 mutant defective in interacting with Keap1, alanine for threonine 350, SEQ ID No. 10 [reference compound]”, the “in vivo proliferation of the tumor cells” value with Huh-1_p62^−/− cells was “not recovered”.
Regarding “non-phosphorylated p62-KIR: non-phosphorylated Keap1-interacting region peptide of mouse p62, 348VDPSTGELQ356, SEQ ID No. 21 (listed as Mus musculus) [reference compound]”, in assay [1], the “Binding constant (Ka) to Keap1-DC” value is given as “(5.67±1.19)×10^4 M^−1”.
With “p62 (S349E): pseudo-phosphorylated human p62 mutant, glutamic acid for serine 349, SEQ ID No. 8”, in the assay on Huh-1_p62^−/− cells, the “in vivo proliferation of the tumor cells” value is “significantly enhanced”.
In the case of “phosphorylated p62-KIR: Keap1-interacting region peptide of mouse p62 phosphorylated at serine 351, 348VDP(pS)TGELQ356 (VDP[pS]TGELQ; listed as Mus musculus)”, in assay [1], the “binding affinity for Keap1-DC relative to KIR of the non-phosphorylated p62” value is given as “about 100 times” and the “Binding constant (Ka) to Keap1-DC” value is on record as “(5.12±1.80)×10^6 M^−1”. The “binding affinity for Keap1-DC relative to KIR of the non-phosphorylated p62” value in assay [1] (listed as KIR in the phosphorylated p62) is listed as “approximately 100 times”.
